Laboratory results reported in US11332452B2, “Pesticidal compositions and methods” (priority 2019, dated 2022).

Columns and labels:
Type in all cases: in vivo
[1] = tested on: Beet Armyworm (Spodoptera exigua, LAPHEG); test: Insecticidal test for beet armyworm (BAW), 128-well diet tray assay; conditions: 168 h, 50 μg/cm^2 of test compound on artificial diet, second instar larvae, 25° C., five to seven days, average of eight wells, read-out: BAW % Control (or Mortality) rating
Procedure: Insecticidal Test for Beet Armyworm (Spodoptera exigua, LAPHEG) (“BAW”)
(§1) Bioassays on beet armyworm (BAW; Spodoptera exigua: Lepidoptera) are conducted using a 128-well diet tray assay. One to five second instar BAW larvae are placed in each well (3 mL) of the diet tray that had been previously filled with 1 mL of artificial diet to which 50 μg/cm^2 of the test compound (dissolved in 50 μL of 90:10 acetone-water mixture) had been applied (to each of eight wells) and then allowed to dry. Trays are covered with a clear self-adhesive cover, vented to allow gas exchange, and held at 25° C., 14:10 light-dark for five to seven days. Percent mortality is recorded for the larvae in each well; activity in the eight wells is then averaged.

[2] = tested on: Yellow Fever Mosquito (Aedes aegypti, AEDSAE); test: Insecticidal test for yellow fever mosquito (YFM), 96-well plate larval assay; conditions: from 4000 ppm DMSO master solution, diluted; about 1 day-old larvae; room temperature; scored after 3 days
Procedure: Insecticidal Test for Yellow Fever Mosquito (Aedes aegypti, AEDSAE) (“YFM”)
Master plates containing 400 μg of a molecule dissolved in 100 μL of dimethyl sulfoxide (DMSO) (equivalent to a 4000 ppm solution) are used. A master plate of assembled molecules contains 15 μL per well. To this plate, 135 μL of a 90:10 water/acetone mixture is added to each well. A robot (Biomek® NXP Laboratory Automation Workstation) is programmed to dispense 15 μL aspirations from the master plate into an empty 96-well shallow plate (“daughter” plate). There are 6 reps (“daughter” plates) created per master. The created “daughter” plates are then immediately infested with YFM larvae.
The day before plates are to be treated, mosquito eggs are placed in Millipore water containing liver powder to begin hatching (4 g. into 400 mL). After the “daughter” plates are created using the robot, they are infested with 220 μL of the liver powder/larval mosquito mixture (about 1 day-old larvae). After plates are infested with mosquito larvae, a non-evaporative lid is used to cover the plate to reduce drying. Plates are held at room temperature for 3 days prior to grading. After 3 days, each well is observed and scored based on mortality.

[3] = tested on: Cabbage Looper (Trichloplusia Ni, TRIPNI); test: Insecticidal test for cabbage looper (CL), 128-well diet tray assay; conditions: Trichoplusia ni, 168 h, read-out: CL % Control (or Mortality) rating
Procedure: Insecticidal Test for Cabbage Looper (Trichloplusia Ni, TRIPNI) (“CL”)
as §1, with “cabbage looper (CL; Trichloplusia ni:” for “beet armyworm (BAW; Spodoptera exigua:”, “CL” for “BAW”

Compound | mortality at 50 µg/cm2 [1] | YFM % Control (or Mortality) rating [2] | mortality at 50 µg/cm2 [3]
Cc1ccc(C(C)C)c(N2C(=O)CS/C2=N\C(=O)NCCc2ccc(NC(=O)c3ccc(OC(F)(F)F)cc3)cc2)c1 [Compound A49, (Z)—N-(4-(2-(3-(3-(2-isopropyl-5-methylphenyl)-4-oxothiazolidin-2-ylidene)ureido)ethyl)phenyl)-4-(trifluoromethoxy)benzamide] | 50 to 100% | A (80-100) | 0%
Cc1ccc(C(C)C)c(N2C(=O)CS/C2=N\C(=O)Nc2ccc(C(=O)NNc3ccc(OC(F)(F)F)cc3)cc2)c1 [Compound A2, (Z)-1-(3-(2-Isopropyl-5-methylphenyl)-4-oxothiazolidin-2-ylidene)-3-(4-(2-(4-(trifluoromethoxy)phenyl)hydrazine-1-carbonyl)phenyl)urea] | 50 to 100% | A (80-100) | 50 to 100%
CCC(C)Oc1ccc(C)cc1N1C(=O)CS/C1=N\C(=O)NCCc1ccc(NC(=O)Nc2ccc(OC(F)(F)F)cc2)cc1 (stereo not drawn) [Compound A20] | 50 to 100% | B (More than 0-Less than 80) | 50 to 100%
CCCc1ccc(OC)cc1N1C(=O)CS/C1=N\C(=O)NC(C)Cc1ccc(NC(=O)Nc2ccc(OC(F)(F)F)cc2)cc1 (stereo not drawn) [Compound A37, (Z)-1-(4-(2-(3-(3-(5-Methoxy-2-propylphenyl)-4-oxothiazolidin-2-ylidene)ureido)propyl)phenyl)-3-(4-(trifluoromethoxy)phenyl)urea] | 50 to 100% | B (More than 0-Less than 80) | 50 to 100%
CCCc1ccc(OC)cc1N1C(=O)CS/C1=N\C(=O)NCCc1ccc(NC(=O)Nc2ccc(OC(F)(F)F)cc2)cc1 [Compound A18, (Z)-1-(4-(2-(3-(3-(5-Methoxy-2-propylphenyl)-4-oxothiazolidin-2-ylidene)ureido)ethyl)phenyl)-3-(4-(trifluoromethoxy)phenyl)urea] | 50 to 100% | B (More than 0-Less than 80) | 50 to 100%
CC(C)c1ccc(Cl)cc1N1C(=O)CS/C1=N\C(=O)NCCc1ccc(NC(=O)Nc2ccc(C(F)(F)F)cc2)cc1 [Compound A13, (Z)-1-(4-(2-(3-(3-(5-Chloro-2-isopropylphenyl)-4-oxothiazolidin-2-ylidene)ureido)ethyl)phenyl)-3-(4-(trifluoromethyl)phenyl)urea] | 50 to 100% | A (80-100) | 50 to 100%
CC(Cc1ccc(NC(=O)Nc2ccc(OC(F)(F)F)cc2)cc1)NC(=O)/N=C1\SCC(=O)N1c1ccccc1C(C)C (stereo not drawn) [Compound A34, (Z)-1-(4-(2-(3-(3-(2-Isopropylphenyl)-4-oxothiazolidin-2-ylidene)ureido)propyl)phenyl)-3-(4-(trifluoromethoxy)phenyl)urea] | 50 to 100% | A (80-100) | 50 to 100%
CC(C)c1ccccc1N1C(=O)CS/C1=N\C(=O)Nc1ccc(N/N=C/c2ccc(OC(F)(F)F)cc2)cc1 [Compound A54, 1-((Z)-3-(2-isopropylphenyl)-4-oxothiazolidin-2-ylidene)-3-(4-(2-((E)-4-(trifluoromethoxy)benzylidene)hydrazinyl)phenyl)urea] | 50 to 100% | A (80-100) | 50 to 100%
Cc1ccc(C(C)C)c(N2C(=O)CS/C2=N\C(=O)Nc2ccc(CNC(=O)Nc3ccc(OC(F)(F)F)cc3)cc2)c1 [Compound A43, (Z)-1-(4-(3-(3-(2-isopropyl-5-methylphenyl)-4-oxothiazolidin-2-ylidene)ureido)benzyl)-3-(4-(trifluoromethoxy)phenyl)urea] | 50 to 100% | A (80-100) | 50 to 100%
O=C(/N=C1\SCC(=O)N1c1cc(Cl)ccc1OCC(F)(F)F)NCCc1ccc(NC(=O)Nc2ccc(OC(F)(F)F)cc2)cc1 [Compound A17, (Z)-1-(4-(2-(3-(3-(5-Chloro-2-(2,2,2-trifluoroethoxy)phenyl)-4-oxothiazolidin-2-ylidene)ureido)ethyl)phenyl)-3-(4-(trifluoromethoxy)phenyl)urea] | 50 to 100% | A (80-100) | 50 to 100%
Cc1cc(N2C(=O)CS/C2=N\C(=O)NCCc2ccc(NC(=O)Nc3ccc(OC(F)(F)F)cc3)cc2)c(C(C)C)cc1F [Compound A25, (Z)-1-(4-(2-(3-(3-(4-Fluoro-2-isopropyl-5-methylphenyl)-4-oxothiazolidin-2-ylidene)ureido)ethyl)phenyl)-3-(4-(trifluoromethoxy)phenyl)urea] | 50 to 100% | A (80-100) | 50 to 100%
Cc1ccc(C(C)C)c(N2C(=O)CS/C2=N\C(=O)NCCc2ccc(NC(=O)Nc3ccc(C(F)(F)F)cc3)cc2)c1 [Compound A9, (Z)-1-(4-(2-(3-(3-(2-isopropyl-5-methylphenyl)-4-oxothiazolidin-2-ylidene)ureido)ethyl)phenyl)-3-(4-(trifluoromethyl)phenyl)urea] | 50 to 100% | A (80-100) | 50 to 100%
CC(Cc1ccc(NC(=O)Nc2ccc(OC(F)(F)F)cc2)cc1)NC(=O)/N=C1\SCC(=O)N1c1cc(Cl)ccc1C(C)C (stereo not drawn) [Compound A35, (Z)-1-(4-(2-(3-(3-(5-Chloro-2-isopropylphenyl)-4-oxothiazolidin-2-ylidene)ureido)propyl)phenyl)-3-(4-(trifluoromethoxy)phenyl)urea] | 50 to 100% | A (80-100) | 50 to 100%
CC(Cc1ccc(NC(=O)Nc2ccc(OC(F)(F)F)cc2)cc1)NC(=O)/N=C1\SCC(=O)N1c1cccc2c1CCCC2 (stereo not drawn) [Compound A42, (Z)-1-(4-(2-(3-(4-Oxo-3-(5,6,7,8-tetrahydronaphthalen-1-yl)thiazolidin-2-ylidene)ureido)propyl)phenyl)-3-(4-(trifluoromethoxy)phenyl)urea] | 50 to 100% | A (80-100) | 50 to 100%
COc1ccc(N2C(=O)CS/C2=N\C(=O)NCCc2ccc(NC(=O)Nc3ccc(C(F)(F)F)cc3)cc2)c(C)c1 [Compound A10, (Z)-1-(4-(2-(3-(3-(4-Methoxy-2-methylphenyl)-4-oxothiazolidin-2-ylidene)ureido)ethyl)phenyl)-3-(4-(trifluoromethyl)phenyl)urea] | 50 to 100% | A (80-100) | 50 to 100%
Cc1ccc(C(C)C)c(N2C(=O)CS/C2=N\C(=O)Nc2ccc(NC(=O)c3ccc(OC(F)(F)F)cc3)cc2)c1 [Compound A48, (Z)—N-(4-(3-(3-(2-isopropyl-5-methylphenyl)-4-oxothiazolidin-2-ylidene)ureido)phenyl)-4-(trifluoromethoxy)benzamide] | 50 to 100% | A (80-100) | 50 to 100%
CC(C)c1ccccc1N1C(=O)CS/C1=N\C(=O)NCCc1ccc(NC(=O)Nc2ccc(C(F)(F)F)cc2)cc1 [Compound A12, (Z)-1-(4-(2-(3-(3-(2-Isopropylphenyl)-4-oxothiazolidin-2-ylidene)ureido)ethyl)phenyl)-3-(4-(trifluoromethyl)phenyl)urea] | 50 to 100% | A (80-100) | 50 to 100%
CCC(C)Oc1ccc(C)cc1N1C(=O)CS/C1=N\C(=O)NC(C)Cc1ccc(NC(=O)Nc2ccc(C(F)(F)F)cc2)cc1 (stereo not drawn) [Compound A30, (Z)-1-(4-(2-(3-(3-(2-(sec-Butoxy)-5-methylphenyl)-4-oxothiazolidin-2-ylidene)ureido)propyl)phenyl)-3-(4-(trifluoromethyl)phenyl)urea] | 50 to 100% | B (More than 0-Less than 80) | 50 to 100%
